Laboratory results taken from the supplement of paper PMC10307832.

Experiments:
Experiment in all cases: relative viability (nuclei count vs DMSO), 5 days (fraction); higher = more cells survive
[1] = compound: O=C(C[C@H]1NCCC[C@@H]1O)Cn1cnc2cc(Br)c(Cl)cc2c1=O (racemic) [Halofuginone] + CC1(C)CCC(c2ccc(Cl)cc2)=C(CN2CCN(c3ccc(C(=O)NS(=O)(=O)c4ccc(N[C@H](CCN5CCOCC5)CSc5ccccc5)c(S(=O)(=O)C(F)(F)F)c4)cc3)CC2)C1 [Navitoclax] (partner 0.5 µM)
Summary of the method: (§1)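 Lung cancer cell lines in 1536-well plates got either a single drug or a fixed anchor-drug dose together with five library-drug doses (not always all listed) in √10 steps, by pin tool, on the day after seeding. Nuclei were counted after 5 days, and relative viability is the treated-to-vehicle ratio of nuclei counts. Values are medians of duplicate plates.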

Decitabine + Tozasertib = compound: Nc1ncn([C@H]2C[C@H](O)[C@@H](CO)O2)c(=O)n1 [Decitabine] + Cc1cc(Nc2cc(N3CCN(C)CC3)nc(Sc3ccc(NC(=O)C4CC4)cc3)n2)n[nH]1 [Tozasertib] (partner 0.1 µM)
Summary of the method: as §1

Decitabine + Bortezomib = compound: Nc1ncn([C@H]2C[C@H](O)[C@@H](CO)O2)c(=O)n1 [Decitabine] + CC(C)C[C@H](NC(=O)[C@H](Cc1ccccc1)NC(=O)c1cnccn1)B(O)O [Bortezomib] (partner 0.002 µM)
Summary of the method: as §1

Cediranib + Trametinib = compound: COc1cc2c(Oc3ccc4[nH]c(C)cc4c3F)ncnc2cc1OCCCN1CCCC1 [Cediranib] + CC(=O)Nc1cccc(-n2c(=O)n(C3CC3)c(=O)c3c(Nc4ccc(I)cc4F)n(C)c(=O)c(C)c32)c1 [Trametinib] (partner 0.02 µM)
Summary of the method: as §1

Cell Line | relative viability ([1]; first compound 0.001 µM) | relative viability ([1]; first compound 0.003162 µM) | relative viability ([1]; first compound 0.01 µM) | relative viability ([1]; first compound 0.03162 µM) | relative viability ([1]; first compound 0.1 µM) | relative viability (Decitabine + Tozasertib; first compound 0.04 µM) | relative viability (Decitabine + Tozasertib; first compound 0.1265 µM) | relative viability (Decitabine + Tozasertib; first compound 0.4 µM) | relative viability (Decitabine + Tozasertib; first compound 1.265 µM) | relative viability (Decitabine + Tozasertib; first compound 4 µM) | relative viability (Decitabine + Bortezomib; first compound 0.04 µM) | relative viability (Decitabine + Bortezomib; first compound 0.1265 µM) | relative viability (Decitabine + Bortezomib; first compound 0.4 µM) | relative viability (Decitabine + Bortezomib; first compound 1.265 µM) | relative viability (Decitabine + Bortezomib; first compound 4 µM) | relative viability (Cediranib + Trametinib; first compound 0.04 µM) | relative viability (Cediranib + Trametinib; first compound 0.1265 µM) | relative viability (Cediranib + Trametinib; first compound 0.4 µM) | relative viability (Cediranib + Trametinib; first compound 1.265 µM) | relative viability (Cediranib + Trametinib; first compound 4 µM)
HARA | 1.14 | 1.11 | 1.14 | 1.12 | 1.14 | 0.0975 | 0.0855 | 0.0556 | 0.078 | 0.0747 | 0.819 | 0.7 | 0.511 | 0.431 | 0.308 | 0.803 | 0.81 | 0.62 | 0.882 | 0.831
201T | 1.22 | 1.15 | 1.24 | 1.13 | 1.28 | 0.742 | 0.776 | 0.909 |  | 0.587 | 1.11 | 1.09 | 1.15 | 1 | 1.03 | 0.705 | 0.792 | 0.707 | 0.719 | 0.724
LC-2-ad | 0.555 | 0.469 | 0.43 | 0.459 | 0.101 | 0.479 | 0.419 | 0.299 | 0.334 | 0.371 | 0.799 | 0.779 | 0.459 | 0.304 | 0.329 | 0.94 | 0.915 | 0.901 | 0.995 | 0.841
NCI-H358 |  |  |  |  |  | 0.121 | 0.0951 | 0.0825 | 0.1 | 0.0948 |  |  |  |  |  | 0.148 | 0.156 | 0.123 | 0.106 | 0.131
NCI-H1792 | 0.557 | 0.671 | 0.783 | 0.664 | 0.654 |  |  |  |  |  | 0.927 | 0.99 | 0.923 | 0.444 | 0.521 |  | 0.407 | 0.375 | 0.521 | 0.458
NCI-H650 |  |  |  |  |  | 0.562 | 0.468 | 0.372 | 0.264 | 0.245 | 0.509 | 0.534 | 0.227 | 0.294 | 0.223 | 0.96 | 0.85 | 1.06 | 1.09 | 1.03
Calu-6 | 0.896 | 0.956 | 0.884 | 0.258 | 0.092 |  |  |  |  |  | 0.853 | 0.67 | 0.43 | 0.373 | 0.321 |  |  |  |  | 
LCLC-103H |  |  |  |  |  | 0.485 | 0.463 | 0.308 | 0.369 | 0.253 | 0.985 | 1.04 | 0.966 | 0.9 | 0.749 | 0.73 | 0.664 | 0.676 | 0.747 | 0.7
NCI-H1395 | 1.15 | 1.44 | 1.07 | 1.16 | 1.26 | 0.549 | 0.517 | 0.487 | 0.445 | 0.453 |  |  |  |  |  | 1.05 | 1.04 | 0.999 | 0.954 | 0.904
NCI-H1623 |  |  |  |  |  | 0.401 | 0.422 | 0.367 | 0.373 | 0.305 |  |  |  |  |  |  |  |  |  | 
LK-2 | 0.78 | 0.979 | 0.81 | 0.931 | 0.603 | 0.168 | 0.166 | 0.182 | 0.155 | 0.19 |  |  |  |  |  | 0.889 | 0.573 | 0.668 | 0.742 | 0.643
NCI-H1299 | 1.1 | 1.05 | 1.05 | 1.02 | 0.964 |  |  |  |  |  | 1.01 | 0.988 | 0.965 | 0.867 | 0.865 |  |  |  |  | 
NCI-H1703 | 1.46 | 1.04 | 1.08 | 0.765 | 0.194 |  |  |  |  |  | 0.243 | 0.258 | 0.2 | 0.182 | 0.176 |  |  |  |  | 
NCI-H522 |  |  |  |  |  | 0.538 | 0.624 | 0.376 | 0.446 | 0.37 |  |  |  |  |  | 0.785 | 0.675 | 0.755 | 0.864 | 0.756
NCI-H1793 | 0.409 | 0.367 | 0.406 | 0.396 | 0.195 | 0.288 | 0.335 | 0.247 | 0.226 | 0.207 |  |  |  |  |  | 0.449 | 0.446 | 0.407 | 0.435 | 0.432
ABC-1 |  |  |  |  |  | 0.211 | 0.185 | 0.174 | 0.195 | 0.21 | 0.286 | 0.239 | 0.315 | 0.23 | 0.228 |  |  |  |  | 
IA-LM | 0.864 | 0.961 | 0.702 | 0.572 | 0.0557 |  |  |  |  |  | 0.44 | 0.54 | 0.257 | 0.172 | 0.185 |  |  |  |  | 
SW 900 |  |  |  |  |  | 0.288 | 0.297 | 0.222 | 0.182 | 0.15 |  |  |  |  |  | 0.76 | 1.08 | 0.636 | 0.83 | 0.885
NCI-H1563 |  |  |  |  |  |  |  |  |  |  | 0.801 | 1.02 | 1.16 | 0.987 | 0.908 |  |  |  |  | 
NCI-H2342 |  |  |  |  |  | 0.495 | 0.502 | 0.552 | 0.385 | 0.362 |  |  |  |  |  | 0.841 | 0.897 | 0.849 | 0.877 | 0.812
NCI-H1944 | 1.04 | 1.06 | 1.02 | 1.05 | 1.01 | 0.234 | 0.268 | 0.22 | 0.201 | 0.186 |  |  |  |  |  | 0.402 | 0.377 | 0.409 | 0.4 | 0.474
